# Test results taken from US20060276433A1, “Hydrazone derivative” (priority 2003, published 2006).
# Experiments:
# [1] = target: T1, amyloid β-protein (human, 1-40) (Homo sapiens, UniProt P05067); experiment: Effect of drugs on the amyloid formation of amyloid β-protein (Thioflavine T method); assay type: biochemical; settings: read-out: IC50 value (50% inhibition concentration of amyloid formation)
# Procedure: Thereafter, the quantity of amyloid formation was measured by the Thioflavine T method (Naiki et al., Lab Invest, 65, 104-110, 1991). The measured value was converted to a relative value (%) based on the quantity of amyloid formation in the drug-non-added control group, and then 50% inhibition concentration (IC50 value) of amyloid formation was calculated.
# [2] = target: Amyloid β-protein (human, 1-42) (Homo sapiens, UniProt P05067); experiment: Effect on amyloid formation of various amyloid forming proteins (Thioflavine T method): Aβ1-42; assay type: biochemical; settings: Aβ1-42 10 μM, PBS(−), room temperature, sampled next day; read-out: IC50 (50% inhibition concentration of amyloid formation), Aβ1-42
# Amyloid β-protein (human, 1-42), sequence (P05067 18-42): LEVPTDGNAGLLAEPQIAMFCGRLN
# [3] = target: T1, amyloid β-protein (human, 1-40); experiment: Effect on amyloid formation of various amyloid forming proteins (Thioflavine T method): Aβ1-40; assay type: biochemical; settings: Aβ1-40 10 μM, PBS(−), room temperature, sampled next day; read-out: IC50 (50% inhibition concentration of amyloid formation), Aβ1-40
# [4] = target: partial fragment of prion protein (PrP 118-135) (Homo sapiens, UniProt P04156); experiment: biochemical
# [5] = target: T2, Amyrin (Homo sapiens, UniProt P10997); experiment: Effect on amyloid formation of various amyloid forming proteins (Thioflavine T method): Amyrin; assay type: biochemical; settings: Amyrin 10 μM, PBS(−), room temperature, sampled next day; read-out: IC50 (50% inhibition concentration of amyloid formation), Amyrin
# T2 construct: Amyrin (10 μM; purchased from Bachem), as an amyloid forming protein; purchased Bachem
# T2 sequence (P10997 34-70 limits assumed): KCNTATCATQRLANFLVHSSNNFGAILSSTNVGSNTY
# [6] = tested on: amyloid (senile plaque) in human Alzheimer disease brain sections; experiment: Specific binding to amyloid in Alzheimer disease brain sections (fluorescence microscopy); settings: 50 μM in TBS, formalin-fixed human Alzheimer disease brain sections, fluorescence microscope
# Procedure: Specific Binding to Amyloid
# The compound of Example 21 having fluorescence was dissolved in TBS at a concentration of 50 μM and incubated with formalin-fixed human Alzheimer disease brain sections (purchased from BioChain). Thereafter, the sections were washed with saturated lithium carbonate/40% ethanol, dried and then observed under a fluorescence microscope.
# Thus, it was shown that the compound of the present invention can specifically bind to amyloid in the Alzheimer brain.
# [7] = 15 μM amyloid β-protein (human, 1-40), PBS(−), room temperature, 1 day, drug 1.6, 8 or 40 μM
# T1 sequence (P05067 18-40): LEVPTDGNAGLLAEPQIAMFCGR
smiles,measurement,setting,value
CC(=C(C#N)C#N)c1ccc2cc(N(C)C)ccc2c1 [DDNP],IC50,[1],3230 nM
"C(=NNc1ccc(-c2cnco2)cc1)c1ccncc1 [Example 3, 4-Pyridinecarboxyaldehyde 4-(oxazol-5-yl)phenylhydrazone]",IC50,[1]; [7],2940 nM
same,IC50,[2],700 nM
same,IC50,[3],1160 nM
same,IC50,[4],1970 nM
same,IC50,[5],2080 nM
"Cc1ccc2nc(-c3ccc(N/N=C/c4ccncc4)cc3)sc2c1 [Example 21, 4-Pyridinecarboxyaldehyde 4-(6-methylbenzothiazol-2-yl)phenylhydrazone]",Fluorescence binding to amyloid in brain sections,[6],accumulation of fluorescence was found in the senile plaque
"Nc1c(/N=N/c2ccc(-c3ccc(/N=N/c4cc(S(=O)(=O)O)c5ccccc5c4N)cc3)cc2)cc(S(=O)(=O)O)c2ccccc12 [Congo Red, Congo red, reference compound]",IC50,[1]; [7],870 nM
